Source: publication PMC10441322 (bioRxiv, 2023)

How the values were obtained:
[1] = biological target: T1, Shaker voltage-gated potassium channel (Drosophila melanogaster, UniProt P08510); assay: cut-open voltage clamp of Shaker in Xenopus oocytes, […] mV, pH […]; assay type: cell-based
[2] = biological target: T1, Shaker voltage-gated potassium channel; assay: cut-open voltage clamp of Shaker in Xenopus laevis oocytes, […] mV, pH […]; assay type: cell-based
CYP2E1 = CYP2E1 (Homo sapiens, UniProt P05181); assay: Vivid CYP2E1 fluorogenic competitive inhibition assay, dose-response; assay type: biochemical
Sequence of CYP2E1 (P16435 2-677): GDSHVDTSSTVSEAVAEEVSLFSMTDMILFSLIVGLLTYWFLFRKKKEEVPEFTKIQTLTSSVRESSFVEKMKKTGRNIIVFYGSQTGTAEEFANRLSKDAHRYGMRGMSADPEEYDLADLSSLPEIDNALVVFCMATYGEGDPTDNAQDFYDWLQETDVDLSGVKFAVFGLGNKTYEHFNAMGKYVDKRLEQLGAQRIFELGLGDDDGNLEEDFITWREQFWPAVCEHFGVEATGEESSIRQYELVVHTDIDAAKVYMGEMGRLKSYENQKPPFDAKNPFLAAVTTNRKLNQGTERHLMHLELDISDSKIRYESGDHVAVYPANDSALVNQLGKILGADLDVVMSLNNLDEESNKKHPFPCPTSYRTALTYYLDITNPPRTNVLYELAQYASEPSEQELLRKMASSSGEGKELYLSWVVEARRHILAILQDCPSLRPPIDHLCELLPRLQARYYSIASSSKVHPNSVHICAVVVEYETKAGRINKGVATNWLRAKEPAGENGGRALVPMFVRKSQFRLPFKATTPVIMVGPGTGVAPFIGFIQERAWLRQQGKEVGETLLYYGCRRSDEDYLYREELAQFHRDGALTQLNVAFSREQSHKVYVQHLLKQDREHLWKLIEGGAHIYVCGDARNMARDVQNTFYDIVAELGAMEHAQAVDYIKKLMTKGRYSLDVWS
Sequence of CYP2E1 (P05181 whole entry): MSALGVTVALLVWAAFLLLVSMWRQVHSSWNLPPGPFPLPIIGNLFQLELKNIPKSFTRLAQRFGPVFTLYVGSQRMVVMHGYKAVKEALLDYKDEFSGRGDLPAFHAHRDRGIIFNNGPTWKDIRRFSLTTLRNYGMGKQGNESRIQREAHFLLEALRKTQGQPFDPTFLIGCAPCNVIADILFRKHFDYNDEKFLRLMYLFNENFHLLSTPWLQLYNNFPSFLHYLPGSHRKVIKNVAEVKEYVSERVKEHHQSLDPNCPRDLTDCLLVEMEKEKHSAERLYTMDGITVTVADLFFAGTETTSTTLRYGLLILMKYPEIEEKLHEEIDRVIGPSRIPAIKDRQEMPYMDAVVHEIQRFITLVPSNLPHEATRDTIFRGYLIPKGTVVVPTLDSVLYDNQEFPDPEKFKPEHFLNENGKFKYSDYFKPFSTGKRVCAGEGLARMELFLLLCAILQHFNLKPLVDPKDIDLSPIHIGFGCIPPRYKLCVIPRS

T1 sequence (P08510 whole entry): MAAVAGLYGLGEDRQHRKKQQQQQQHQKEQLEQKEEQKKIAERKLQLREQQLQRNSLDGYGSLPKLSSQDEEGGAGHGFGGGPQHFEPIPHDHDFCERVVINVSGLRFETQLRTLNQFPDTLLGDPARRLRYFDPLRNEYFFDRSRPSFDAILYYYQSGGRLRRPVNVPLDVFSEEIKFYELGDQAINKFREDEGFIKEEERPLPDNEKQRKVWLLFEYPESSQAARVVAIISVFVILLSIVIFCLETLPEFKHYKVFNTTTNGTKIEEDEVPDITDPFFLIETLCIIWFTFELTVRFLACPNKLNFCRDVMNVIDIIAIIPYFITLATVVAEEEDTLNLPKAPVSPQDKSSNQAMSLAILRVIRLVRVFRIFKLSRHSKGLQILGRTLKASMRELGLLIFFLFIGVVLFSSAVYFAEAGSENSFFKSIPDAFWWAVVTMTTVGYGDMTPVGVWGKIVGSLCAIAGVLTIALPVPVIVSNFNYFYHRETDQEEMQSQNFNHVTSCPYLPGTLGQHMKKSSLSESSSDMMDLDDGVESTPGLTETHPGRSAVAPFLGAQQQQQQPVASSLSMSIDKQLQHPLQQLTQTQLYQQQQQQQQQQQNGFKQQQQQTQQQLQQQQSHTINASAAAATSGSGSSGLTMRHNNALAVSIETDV

| IC50 [2] [µM] | SMILES | IC50 [1] [µM] | IC50 (CYP2E1) [µM] |
| --- | --- | --- | --- |
|  | Cc1cnccc1N [3Me4AP] | 66 |  |
| 301 | Cc1cncc(F)c1N [5Me3F4AP, 3-fluoro-5-methylpyridin-4-amine] |  | 35.9 |
|  | Nc1ccncc1F [3F4AP, 3-fluoro-4-aminopyridine] | 122 | 17 |
